The results in this text go back to patent publication US10745703B2, “Compositions and methods for treating cancer” (CASE WESTERN RESERVE UNIVERSITY, priority 2009, dated 2020).

Entries after “also recorded” stand apart in the source; their conditions may differ. Where a SMILES comes first, the peptide text is derived from it. The star is where a group is joined. Decanoyl = CCCCCCCCCC(=O)*; Cbz = O=C(OCc1ccccc1)*; CH2Cl = ClC*

Common to all, as to assay type: cell-based, human
The test system of assay [1] is U-87 MG cells. Briefly: Scratch wound assay, U-87 MG cells. On the procedure: U-87 MG cells were infected with control or PTPμ shRNA lentivirus. After three days, confluent monolayers of cells were scratched with a 20 μl pipette tip to induce a wound. The wounded edges were imaged using a Nikon (Tokyo, Japan) TE200 inverted microscope and Spot RT digital camera and image acquisition software (Diagnostic Instruments, Inc., Sterling Heights, Mich.) Images were collected with a 10× objective 0, 6, 24, and 48 hours after wounding. Images were quantitated using MetaMorph software (Molecular Devices, Downingtown, Pa.) by measuring the width of the wound at each time point. The difference between the width of the wound at the zero time point and the time point being analyzed was divided by two. This value reflects the distance migrated by the leading edge of one side of the wound during a given time interval. Replicates were averaged and plotted using Microsoft Excel. Error bars indicate standard error. Data were analyzed for statistical significance using an unpaired student's t-test. Rac1 inhibition studies were performed using a Rac1-specific inhibitor from Calbiochem (Gibbstown, N.J.) (J Biol Chem. 2005;280:37516-37525; Proc Natl Acad Sci USA. 2004;101:7618-7623). For morphological studies, the inhibitor was dissolved in water and added at a final concentration of 100 μM just prior to scratching the cells. Cells were analyzed after 6 hours. For migration studies, the inhibitor was dissolved in water and added at a final concentration of 50 μM just prior to scratching the cells. Cells were analyzed after 24 hours.

The test system of assay [2] is LN-229 cells. Briefly: Scratch wound assay, LN-229 cells. To be noted: for PTPμ fragment-mediated cell migration: LN-229 cells, DAPT 2 μM, GM6001 50 μM; for migration of LN-229 cells: peptide 5 μM, versus scrambled control, 24 hours. The procedure: Confluent monolayers of cells were scratched to induce a wound and analyzed by microscopy for the distance migrated by the leading edge of the wound at 0 and 24 hrs.
(§1) The Furin Inhibitor I (Dec-RVKR-CMK, Calbiochem, Gibbstown, N.J.) was used at 50 μM for 17-20 hours. The γ-secretase inhibitors DAPT (Sigma-Aldrich) and L-685,458 (Sigma-Aldrich) were used at 2 μM and 5 μM, respectively, for 17-20 hours. The proteasome was inhibited with MG132 (Sigma-Aldrich) at 20 μM or epoxomicin (Calbiochem) at 5 μM for 4 hours. GM6001 (Calbiochem) was used at 50 μM as an MMP/ADAM inhibitor for 17-20 hours. Inhibitors were reconstituted in DMSO, which was used as a vehicle control. […] The PTPμ wedge peptide and a scrambled control peptide were synthesized to include a membrane-penetrant Tat-derived sequence at the C-terminus to promote cellular uptake. Peptides synthesized by Genemed Synthesis (San Antonio, Tex.) or GenScript (Piscataway, N.J.) were reconstituted in water and added to cells at a final concentration of 5 μM.

Assay [3] deals with PTPμ. Kind of assay: Proteolytic processing of PTPμ in LN-229 cells treated with protease inhibitors (biotinylation, immunoprecipitation, immunoblot). To be noted: for endogenous PTPμ PΔE and ICD fragments: parental LN-229 cells, immunoprecipitation SK-18, immunoblot SK-7; for PTPμ PΔE and ICD fragments: total lysates of LN-229 cells overexpressing PTPμ or PTPμ-GFP; for furin cleavage of PTPμ (full-length PTPμ at the cell surface, P-subunit formation): LN-229 cells, cell surface biotinylation, inhibitor 50 μM, 17-20 hours. The procedure: Cell lysates were prepared and immunoblotted using normalized samples of ˜20 μg protein detected with monoclonal antibodies recognizing the intracellular segment of PTPμ (SK-7 or SK-18) (Mol Cell Biochem 1993; 127-128: 131-41). An antibody against vinculin was from Sigma-Aldrich (St. Louis, Mo.). The GFP antibody JL-8 was from Clontech (Mountain View, Calif.).
Cell surface biotinylation was performed using a Sulfo-NHS-SS-Biotin Kit (Pierce). Biotinylated proteins were isolated and resolved by SDS-PAGE on 6% gels followed by immunoblotting with an antibody to PTPμ (SK-18) as described (Mol Cancer Res 2008; 6: 1106-13).
as §1
Cells were grown to confluence, treated with inhibitors, and lysed in 20 mM Tris-HCL, pH 7.5, 1% Triton X-100, 150 mM NaCl, 2 mM EDTA, 1 mM benzamidine, aprotinin (5 μg/ml), leupeptin (5 μg/ml) and pepstatin (1 μg/ml). Samples were sonicated and centrifuged at 10,000 rpm for 5 minutes. Immunoprecipitations from ˜400 μg total protein were performed using a PTPμ antibody (SK-18) and resolved by SDS-PAGE on 8% gels followed by immunoblotting with an antibody to PTPμ (SK-7).

Turning to `CCN(CC)CCCC(C)Nc1nc(C)cc(Nc2ccc3nc(C)cc(N)c3c2)n1` (racemic) [Rac1 inhibitor], in assay [1] (U-87 MG cells with PTPμ shRNA #1, inhibitor 100 μM, 6 hours), the “induction of lamellipodia in cells with reduced PTPμ expression” value is “prevented the induction of lamellipodia; also recorded: blocked the formation of PTPμ-induced lamellipodia”. For the same molecule, the “migration induced by the loss of PTPμ (distance migrated by leading edge)” value in assay [1] (U-87 MG cells with PTPμ shRNA, inhibitor 50 μM, 24 hours) is “significantly suppressed the migration; also recorded: significantly reduced the migration”. The “effect on morphology of control U-87 MG cells” value in assay [1] (control shRNA U-87 MG cells, inhibitor 100 μM, 6 hours) is listed as “no effect on morphology”.

As for `C[C@H](NC(=O)Cc1cc(F)cc(F)c1)C(=O)N[C@H](C(=O)OC(C)(C)C)c1ccccc1` [DAPT], in assay [2], the “PTPμ fragment-mediated cell migration” value is given as “increased migration”. In addition, in assay [3], the “endogenous PTPμ PΔE and ICD fragments” value is listed as “stabilized a fragment that corresponds by molecular weight to a membrane-tethered truncated P-subunit termed PΔE”; the “PTPμ PΔE and ICD fragments” value is “accumulation of PTPμ PΔE and ICD; also recorded: stabilized”.

Consider `CCCCCCCCCC(=O)N[C@@H](CCCN=C(N)N)C(=O)N[C@H](C(=O)N[C@@H](CCCCN)C(=O)N[C@@H](CCCN=C(N)N)C(=O)CCl)C(C)C` [Furin Inhibitor I, Dec-RVKR-CMK] (Decanoyl-RVKR-CH2Cl), for which the “furin cleavage of PTPμ (full-length PTPμ at the cell surface, P-subunit formation)” value in assay [3] (listed as inhibitor of furin) is recorded as “prevented P-subunit formation”; in assay [3] (listed as inhibitor of furin activity), “accumulation of full-length PTPμ (200 kDa) at the cell surface”.

Take `CNC(=O)[C@H](Cc1c[nH]c2ccccc12)NC(=O)[C@@H](CC(=O)NO)CC(C)C` [GM6001]: in assay [2], the “PTPμ fragment-mediated cell migration” value was “decreased migration”. Besides, in assay [3], the “endogenous PTPμ PΔE and ICD fragments” value was “limited the formation of PTPμ PΔE and ICD fragments”.

For the molecule `CC(C)C[C@H](NC(=O)[C@H](Cc1ccccc1)C[C@@H](O)[C@H](Cc1ccccc1)NC(=O)OC(C)(C)C)C(=O)N[C@@H](Cc1ccccc1)C(N)=O` [L685,458, L-685,458], the “PTPμ PΔE and ICD fragments” value in assay [3] is “accumulation of PTPμ PΔE and ICD; also recorded: stabilized”.

In the case of `CC(C)C[C@@H](C=O)NC(=O)[C@H](CC(C)C)NC(=O)[C@H](CC(C)C)NC(=O)OCc1ccccc1` [MG132] (Cbz-Leu-Leu-Leu-aldehyde), in assay [3], the “endogenous PTPμ PΔE and ICD fragments” value is “accumulation of both PΔE and a soluble fragment termed PTPμ intracellular domain (ICD); also recorded: stabilized”; the “PTPμ PΔE and ICD fragments” value is “accumulation of PTPμ PΔE and ICD; also recorded: stabilized”.

In the case of `CC[C@H](C)[C@H](NC(=O)[C@H]([C@@H](C)CC)N(C)C(C)=O)C(=O)N[C@H](C(=O)N[C@@H](CC(C)C)C(=O)[C@@]1(C)CO1)[C@@H](C)O` [epoxomicin], in assay [3], the “PTPμ PΔE and ICD fragments” value is on record as “Stabilization of PTPμ ICD; also recorded: stabilized”.

As for “PTPμ wedge peptide: Peptide targeting the helix-loop-helix wedge domain of PTPμ with a membrane-penetrant Tat-derived sequence at the C-terminus (likely SEQ ID NO: 5) (DLLQHITQMKCAEGYGFKEEYESGRKKRRQRRRC)”, the “migration of LN-229 cells” value in assay [2] is given as “significantly reduced migration”; in assay [2] (listed as PTPμ wedge inhibitor peptide) it was “statistically significant difference in migration”.
